Laboratory results as given in patent publication US4835160A, “Derivatives of pyridoindole, having anti-tumor properties” (Sanofi, priority 1986, dated 1989).

How the values were obtained:
[1] = test system: leukemia P 388; assay: Test for leukemia P 388 IP/D1 IV; type: in vivo, CDF1 hybrid mice; details: for Number of survivors: day D30; for T/C %: survival time
Procedure: (§1) The antitumour activity was tested in vivo on various tumours inoculated in various ways according to the following general protocol:
(§2) All the male or female mice are inoculated on day D0 with a known quantity of viable tumour cells for ascitic tumours or with a known tumour fragment for solid tumours.
(§3) They are then distributed into various groups. Each group, corresponding to the animals treated by the product under test, is made up of 10 mice. The product under test is dissolved in distilled water and it is administered n times (Dx-Dy), n, y, and x varying according to the protocol chosen, at the rate of 0.1 ml of solution per 10 g by weight of mice treated and at specific doses for each protocol.
(§4) The "negative control" group, corresponding to the animals which are not treated by the product, contains 2√N animals, N being equal to or greater than the total number of mice treated by the product in the same experiment.
(§5) Finally, the tests can also be carried out at the same time as the study of a group called "positive control", of ten animals, which is treated by a molecule, known for its antitumour activity and which can vary according to the protocol chosen, in the same conditions as the groups treated by the product under test.
(§6) The antitumour activity is evaluated, in the case of ascitic tumours, by considering the increase in the survival time of the animals treated in comparison to that of the animals in the "negative control" group, according to the formula: [formula]
(§7) Also, a product is considered as toxic at the dose studied when this T/C value is equal to or less than 85%. In addition, a product is also considered as toxic at the dose studied when the weight variation, expressed in grams and calculated by the formula: […]
(§8) The tests are carried out with CDF1 hybrid mice inoculated by intraperitoneal route with 10^6 leukemia cells from the P 388 line. The compound under test is administered for 5 successive days (D1-D5) by intraperitoneal route. The positive control for the test is 5-fluorouracile which is administered in the same conditions. The number of surviving animals is evaluated on day D30.
(f) Test for leukemia P 388 IP/D1 IV (GERAN et al., Cancer Chemother., 1972, 2, 07-57).
The test is carried out according to the same protocol as that described for test (a), the compound under test being administered by intravenous route only on day D1.

[2] = test system: leukemia P388; assay: Test for leukemia P388, IP/IP, D1; type: in vivo, CDF1 hybrid mice; details: for Number of survivors: day D30; for T/C %: survival time
Procedure: as §1, §2, §3, §4, §5, §6, §7, §8
(b) Test for Leukemia P388, IP/IP, D1 (GERAN et al. Cancer chemother., 1972, 2, 07-57).
The test is carried out according to the preceding protocol, the compound under test being administered only on day D1.

[3] = test system: colic adenocarcinoma 38; assay: Test for colic adenocarcinoma 38, SC/D1 IV; type: in vivo, BDF1 hybrid mice; details: 100 mg/kg IV
Procedure: as §1, §2, §3, §4
(§9) the antitumour activity is evaluated, in the case of solid tumours, by considering the reduction in the average tumour volume of the treated animals in comparison with the animals of the "negative control" group, according to the formula: [formula]
(§10) A value for T/C of less than 42% indicates an activity for the product at the studied dose.
(h) Test for colic adenocarcinoma 38, SC/D1 IV. (GERAN et al., Cancer Chemother., 1972, 2, 07-57).
(§11) The tests are carried out with BDF1 hybrid mice inoculated by subcutaneous route with a standardized tumour fragment of 3 mm^3. The compound under test is administered by intravenous route only on day D1.
The number of surviving animals is evaluated on day D38.

[4] = test system: leukemia tumour line L 1210; assay: In vitro cytotoxic activity on leukemia tumour line L 1210; type: cell-based; details: L 1210, 48 hours contact, 37° C.; read-out: I D 50 (concentration which inhibits the proliferation of the cells by 50%)
Procedure, shortened: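 Exponentially growing L 1210 leukemia cells were exposed to increasing compound concentrations at 37 °C under CO2 and counted every 24 h. ID50, the concentration inhibiting proliferation by 50%, was calculated after 48 h contact.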

[5] = test system: colic adenocarcinoma 38; assay: Test for colic adenocarcinoma 38, SC/D2,9 IV; type: in vivo, BDF1 hybrid mice; parameters: Average tumour volume at D32: unit not given beside the values; details: D2 and D9; for Number of survivors: day D32; for T/C % at D32: tumour volume
Procedure: as §1, §2, §3, §4, §9, §10, §11
(i) Test for colic adenocarcinoma 38, SC/D2,9 IV (GERAN et al., Cancer Chemother., 1972, 2, 07-57).
This test is carried out according to the protocol described for test (h), the compound under test being administered by intravenous route on day D2 then on day D9.
The number of surviving animals is evaluated on day D32.

[6] = test system: leukemia P 388; assay: Test of leukemia P 388; IP/IP, D1-5; type: in vivo, CDF1 hybrid mice; details: D1-D5; for Number of survivors: day D30; for T/C %: survival time
Procedure, shortened: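 CDF1 hybrid mice received 10^6 P 388 cells intraperitoneally, then compound in distilled water by intraperitoneal route daily D1-D5, 10 mice per group, 5-fluorouracil as positive control. Activity judged as T/C survival time versus untreated controls, survivors counted at D30; T/C ≤85% or day 5 minus day 1 weight change ≤ −4 g counted as toxic.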

CCN(CC)CCCNc1ncc(C)c2c1c1cc(O)ccc1n2C [Derivative No. 12, 1-(3-diethylaminopropylamino)-4,5-dimethyl-8-hydroxy-5H-pyrido[4,3-b]indole]
Median day of survival ([1]; 50 mg/kg IV): 19.0 days
Variation by weight ([1]; 50 mg/kg IV): -0.7 g
Number of survivors ([1]; 50 mg/kg IV): 0/10
T/C % ([1]; 50 mg/kg IV): 174%
Median day of survival ([1]; 100 mg/kg IV): 24.3 days
Variation by weight ([1]; 100 mg/kg IV): -1.6 g
Number of survivors ([1]; 100 mg/kg IV): 1/10
T/C % ([1]; 100 mg/kg IV): 223%
Median day of survival ([2]; 5 mg/kg IP): 15.87 days
Variation by weight (g) ([2]; 5 mg/kg IP): +0.1 g
Number of survivors ([2]; 5 mg/kg IP): 0/10
T/C % ([2]; 5 mg/kg IP): 139%
Median day of survival ([2]; 10 mg/kg IP): 17.75 days
Variation by weight ([2]; 10 mg/kg IP): -0.6 g
Number of survivors ([2]; 10 mg/kg IP): 0/10
T/C % ([2]; 10 mg/kg IP): 156%
Median day of survival ([2]; 20 mg/kg IP): 20.75 days
Variation by weight ([2]; 20 mg/kg IP): -1.2 g
Number of survivors ([2]; 20 mg/kg IP): 0/10
T/C % ([2]; 20 mg/kg IP): 182%
Median day of survival ([2]; 40 mg/kg IP): 23.0 days
Variation by weight ([2]; 40 mg/kg IP): -6.2 g
Number of survivors ([2]; 40 mg/kg IP): 1/10
T/C % ([2]; 40 mg/kg IP): 202%
Average tumour volume at D38 [3]: 3.24
Number of survivors ([3]; day D38): 10/10
T/C % at D38 ([3]; tumour volume): 36%
IC50 [4]: 35 nM
Average tumour volume at D32 ([5]; 50 mg/kg IV): 1.38
Number of survivors ([5]; 50 mg/kg IV): 10/10
T/C % at D32 ([5]; 50 mg/kg IV): 18%
Average tumour volume at D32 ([5]; 75 mg/kg IV): 0.97
Number of survivors ([5]; 75 mg/kg IV): 10/10
T/C % at D32 ([5]; 75 mg/kg IV): 13%
Median day of survival ([6]; 1.25 mg/kg IP): 16.7 days
Variation by weight ([6]; 1.25 mg/kg IP): -0.5 g
Number of survivors ([6]; 1.25 mg/kg IP): 1/10
T/C % ([6]; 1.25 mg/kg IP): 152%
Median day of survival ([6]; 2.5 mg/kg IP): 18.0 days
Variation by weight ([6]; 2.5 mg/kg IP): -1.2 g
Number of survivors ([6]; 2.5 mg/kg IP): 0/10
T/C % ([6]; 2.5 mg/kg IP): 164%
Median day of survival ([6]; 5 mg/kg IP): 19.00 days
Variation by weight ([6]; 5 mg/kg IP): -1.9 g
Number of survivors ([6]; 5 mg/kg IP): 2/10
T/C % ([6]; 5 mg/kg IP): 173%
Median day of survival ([6]; 10 mg/kg IP): 19.3 days
Number of survivors ([6]; 10 mg/kg IP): 0/10
T/C % ([6]; 10 mg/kg IP): 176%
Median day of survival ([6]; 20 mg/kg IP): 9.7 days
Variation by weight ([6]; 20 mg/kg IP): -5.9 g
Number of survivors ([6]; 20 mg/kg IP): 0/10
T/C % ([6]; 20 mg/kg IP): 88%
